Results: patent US12312333B2, “SK channel positive allosteric modulators” (Chapman University, priority 2021, dated 2025)
Entries after “also recorded” stand apart in the source; their conditions may differ.

Experiments:
[1] = target: T1, rat KCa2.2a (UniProt P0DP23+P70604); test: Inside-out patch-clamp potentiation of KCa2.2a channels expressed in HEK293 cells; format: cell-based; settings: for Emax: HEK293, current at −90 mV at maximal compound concentration normalized to 10 μM Ca2+, read-out: Emax on KCa2.2a channels (I/Imax); for EC50: inside-out patch, HEK293, 0.15 μM Ca2+, current at −90 mV, read-out: EC50 (mean ± SEM, μM) on potentiating KCa2.2a channels; for efficacy (Emax) on KCa2.2a channels: normalized to 10 μM Ca2+
T1 construct: expressed in transfected cells; host or cells: HEK293
Experimental: The impact of adding one substituent group at C4 of the cyclohexane moiety of CyPPA with either electron donating (OH (2a), NH2 (2b), CH2OH (2c), and OCH3 (2d)) or electron-withdrawing groups (F (2e) and NO2 (2f)) was explored. The potency of the newly synthesized compounds compared to the template CyPPA was measured via inside-out patch clamp electrophysiology recordings with KCa2.2a channels heterologously expressed in HEK293 cells (FIG. 1A). […] The responses induced by 10 μM Ca^2+ are considered the maximal currents of the KCa2.2a channels. To evaluate the efficacy (Emax) of compounds on KCa2.2a channels, the current amplitudes at −90 mV in response to the maximal concentration of compounds were normalized to that obtained at 10 μM Ca^2+ (I/Imax (%), FIG. 1C).
The effect of newly synthesized compounds on the KCa2.x/KCa3.1 channels was investigated as previously described (Nam, Y. W.; et al, Acta Physiol (Oxf) 2020, e13552; Nam, Y. W.; et al. Scientific reports 2018, 8 (1), 10749). Briefly, the rat KCa2.2a, human KCa2.1, human KCa2.3 or human KCa3.1 channels cDNA constructs were either generated in-house or through molecular cloning services (Genscript). The channel cDNAs, along with CaM and GFP, at a ratio of 7:4:2 (ORF ratios), were transfected into HEK293 cells by the calcium-phosphate method. KCa currents were recorded 1-2 days after transfection, with an Axon200B amplifier (Molecular Devices) at room temperature. The resistance of the patch electrodes ranged from 3-5 MΩ. The pipette solution contained (in mM): 140 KCl, 10 Hepes (pH 7.4), 1 MgSO4. The bath solution containing (in mM): 140 KCl, 10 Hepes (pH 7.2), 1 EGTA, 0.1 Dibromo-BAPTA, and 1 HEDTA was mixed with Ca^2+ to obtain the desired free Ca^2+ concentrations, calculated using the software by Chris Patton of Stanford University (https://somapp.ucdmc.ucdavis.edu/pharmacology/bers/maxchelator/webmaxc/webmaxcS.htm). The Ca^2+ concentrations were verified using a Ca^2+ calibration buffer kit (Thermo Fisher Scientific). Briefly, a standard curve was generated using the Ca^2+ buffers from the kit and a fluorescence Ca^2+ indicator. Then, the Ca^2+ concentrations of the bath solution were determined through interpolation on the standard curve.
High resistance seals (>1 GΩ) were formed before inside-out patches were obtained. The seal resistance of inside-out patches was >1 GΩ, when the intracellular face was initially exposed to a zero-Ca^2+ bath solution. Currents were recorded by repetitive 1-s-voltage ramps from −100 mV to +100 mV from a holding potential of 0 mV. The currents were filtered at 2 kHz and digitized at a sampling frequency of 10 kHz. At the end of experiment, the integrity of the patch was examined by switching the bath solution back to the zero-Ca^2+ buffer. Data from patches, which maintained the seal resistance (>1 GΩ) after solution changes, were used for further analysis.
To measure the effect of CyPPA (Alomone Labs) and newly synthesized compounds, the intracellular face was exposed to bath solutions with 0.15 μM Ca^2+. One minute after switching of bath solutions, ten sweeps with a 1-s interval were recorded at a series of concentrations of compound in the presence of 0.15 μM Ca^2+. The maximal KCa2.x/KCa3.1 current in response to 10 μM Ca^2+ was then recorded.
Patch-clamp recordings were analyzed using Clampfit 10.5 (Molecular Devices LLC) and concentration-response curves were analyzed in GraphPad Prism 9.0.2 (GraphPad Software Inc.). To construct the concentration-dependent potentiation of channel activities by compound, the current amplitudes at −90 mV in response to various concentrations of the compound were normalized to that obtained at a maximal concentration of compound. The normalized currents were plotted as a function of the concentrations of the compound. EC50 values and Hill coefficients were determined by fitting the data points to a standard concentration-response curve (Y=100/(1+(X/EC50)^−Hill)). […]

[2] = target: T1, rat KCa2.2a; settings: KCa2.2/KCa2.3 vs KCa2.1/KCa3.1; cited from earlier work
[3] = target: T2, human KCa2.3 channels (Homo sapiens, UniProt P0DP23+Q9UGI6); settings: cited from earlier work
T2 construct: expressed in transfected cells; host or cells: HEK293

[4] = Solubility noted during patch-clamp concentration-response; format: physicochemical; settings: bath solution, 200 μM

Row | Emax [1] | EC50 [1] | efficacy (Emax) on KCa2.2a channels [1] | solubility [4] | Compound | subtype selectivity, previously reported [2] | potency on KCa2.3 compared to KCa2.2a channels, background statement [3]
1 | 82.4 ± 4.91% | 7.48 ± 0.56 µM | – | – | Cc1cc(NC2CCCCC2)nc(-n2nc(C)cc2C)n1 [CyPPA, N-cyclohexyl-2-(3,5-dimethyl-1H-pyrazol-1-yl)-6-methylpyrimidin-4-amine] | selectively potentiates KCa2.2a and KCa2.3, but not KCa2.1 and KCa3.1 channel subtypes; also recorded: potentiate the KCa2.2 and KCa2.3, but not the KCa2.1 and KCa3.1 channel subtypes | slightly but significantly higher potency on KCa2.3 channels than KCa2.2a channels
2 | 50 ± 5.78% | 37.6 ± 3.66 µM | reduced efficacy | limited solubility at 200 μM | Cc1cc(Nc2cc(C(=O)O)ccc2F)nc(-n2nc(C)cc2C)n1 [Compound 2v, 3-((2-(3,5-Dimethyl-1H-pyrazol-1-yl)-6-methylpyrimidin-4-yl)amino)-4-fluorobenzoic acid] | – | –
3 | 77.3 ± 4.95% | 49.7 ± 4.38 µM | – | – | COC1CCC(Nc2cc(C)nc(-n3nc(C)cc3C)n2)CC1 (stereo not shown) [Compound 2d, 2-(3,5-Dimethyl-1H-pyrazol-1-yl)-N-(4-methoxycyclohexyl)-6-methylpyrimidin-4-amine] | – | –
4 | – | > 100 µM | – | – | Cc1cc(NCCc2ccc([N+](=O)[O-])cc2)nc(-n2nc(C)cc2C)n1 [Compound 2g, 2-(3,5-Dimethyl-1H-pyrazol-1-yl)-6-methyl-N-(4-nitrophenethyl)pyrimidin-4-amine] | – | –
5 | – | 4.51 ± 0.44 µM | retained their efficacy | – | Cc1cn(-c2nc(C)cc(Nc3cc(Cl)ccc3F)n2)cn1 [Compound 5a, N-(5-Chloro-2-fluorophenyl)-6-methyl-2-(4-methyl-1H-imidazol-1-yl)pyrimidin-4-amine] | – | –
